From US7074334B2, “Method for determining the binding behavior of ligands which specifically bind to target molecules” (priority 2001, dated 2006)
Several values for one entry are separate records, joined by “and”; a condition that tells them apart may be missing. Equal entries are not always repeated.

What was measured:
D1-type receptors = D1-type receptors (Sus scrofa, UniProt P50130); settings: test substance 1 μmol/L
D2-type receptors = biological target: T1, D2-type receptors (Sus scrofa, UniProt F1SM69); experiment: MS binding assay with marker spiroperidol in striatal membrane fraction, unbound marker quantified; set-up: species or system porcine
T1 construct: As native material which contains both D1 and D2 receptors in sufficient amount; from tissue; host or cells: porcine brain striatum, membrane fraction
T1 sequence (F1SM69 1-443): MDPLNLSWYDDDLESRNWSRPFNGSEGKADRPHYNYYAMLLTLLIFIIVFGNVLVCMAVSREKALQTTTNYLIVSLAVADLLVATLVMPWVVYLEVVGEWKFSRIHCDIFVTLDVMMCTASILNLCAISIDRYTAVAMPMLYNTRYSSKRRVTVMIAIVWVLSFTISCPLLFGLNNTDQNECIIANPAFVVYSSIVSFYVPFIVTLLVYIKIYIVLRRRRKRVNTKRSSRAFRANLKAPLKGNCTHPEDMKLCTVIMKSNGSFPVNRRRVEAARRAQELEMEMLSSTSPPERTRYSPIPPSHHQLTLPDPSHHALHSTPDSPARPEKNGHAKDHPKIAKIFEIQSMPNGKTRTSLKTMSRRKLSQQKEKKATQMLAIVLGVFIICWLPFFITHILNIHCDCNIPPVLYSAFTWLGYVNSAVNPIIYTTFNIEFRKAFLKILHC

D1-type receptors, sequence (P50130 whole entry): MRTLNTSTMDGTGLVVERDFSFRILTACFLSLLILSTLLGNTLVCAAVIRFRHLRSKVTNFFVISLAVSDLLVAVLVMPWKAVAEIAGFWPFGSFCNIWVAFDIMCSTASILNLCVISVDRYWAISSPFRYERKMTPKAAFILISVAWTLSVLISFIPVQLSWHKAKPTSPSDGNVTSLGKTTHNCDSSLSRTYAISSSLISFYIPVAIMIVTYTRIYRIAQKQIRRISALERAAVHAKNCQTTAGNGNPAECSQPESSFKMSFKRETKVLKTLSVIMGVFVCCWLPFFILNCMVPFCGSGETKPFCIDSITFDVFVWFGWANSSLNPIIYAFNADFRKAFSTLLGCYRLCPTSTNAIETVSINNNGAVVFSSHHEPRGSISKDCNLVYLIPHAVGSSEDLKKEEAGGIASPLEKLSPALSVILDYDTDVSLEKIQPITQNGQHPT

In the case of `COC(=O)c1ccccc1` [methyl benzoate], the “inhibition of the specific binding of the marker SCH23390 to D1-type receptors” value (D1-type receptors) is reported as “none is capable” and the “inhibition of the specific binding of the marker spiroperidol to D2-type receptors” value (D2-type receptors; test substance 1 μmol/L) is reported as “not capable of inhibiting”.

For `O=C(CCCN1CCC2(CC1)C(=O)NCN2c1ccccc1)c1ccc(F)cc1` [spiroperidol], the “concentration of unbound marker spiroperidol” value (D2-type receptors) was 1.93 nmol/L and 2.75 nmol/L and 2.78 nmol/L and 2.29 nmol/L and 1.89 nmol/L.
